Reference: paper PMC9077138, “An investigation on 3-acetyl-7-methoxy-coumarin Schiff bases and their Ru(II) metallates with potent antiproliferative activity and enhanced LDH and NO release” (RSC Advances, 2018)
Read-outs that look alike come from different tables or passages of the source.

Key:
[1] = biological target: T1, HSA (Homo sapiens, UniProt P02768); assay: HSA tryptophan fluorescence quenching; assay type: binding; settings: for Kd: read-out: Binding constant Kbin (converted)
T1 construct: purchased HiMedia (Mumbai, India)
Excerpt: The obtained results confirmed the interaction of the ligands and complexes with serum albumins. The absorption spectra of the serum albumins in the absence and presence of ligands H2L^1–4 and the complexes 1–4 are given in Fig. S29 in the ESI. ^† On adding ligands and complexes 1–4 to albumins, the absorbance intensity of serum albumins was decreased with a red shift of 2 nm. The observed changes indicated a static quenching mechanism of serum albumins by the ligands and complexes (1–4). To obtain a quantitative insight into the quenching progression, the Stern–Volmer quenching constant (KSV) and the quenching constant (Kq) were calculated from the Stern–Volmer equation using the Io/ICorrversus [Q] plot (Table 4).[53] The observed linearity in the plots (Fig. 13) indicated the ability of the compounds to quench the emission intensity of serum albumins and the order of quenching constant of the compounds is complex 3 > complex 2 > complex 1 > complex 4 > H2L^3 > H2L^2 > H2L^1 > H2L^4.
Furthermore, the equilibrium binding constant and number of binding sites were evaluated by using the Scatchard equation. The Kbin values were derived from the graph between log[(Fo − F)/F] and log[Q] From the results, we confirmed that the Ru(II) complexes having a large hydrophobic area can interact more efficiently than the ligands with serum albumins via a static pathway. The higher binding affinity of the complexes over the ligands may be due to the efficient binding of protein moiety with the complexed metal ions. Here, the binding affinities of the complexes with serum albumins followed the same order as those with DNA binding studies, complex 3 > complex 2 > complex 1 > complex 4 > H2L^3 > H2L^2 > H2L^1 > H2L^4. Variation in the binding affinity of the compounds with serum albumins depends on the electron-donating ability of the ligand, i.e. the substitution on the N-terminal nitrogen atom. The binding capability of the compounds to serum albumins increased with the increase in electron-donating ability of the substituent on the terminal nitrogen of the coordinated thiosemicarbazone ligand. The obtained quenching constant and binding constant values of these new cyclometallated ruthenium(II) complexes agree well with those reported for other ruthenium(II) complexes.[31,44,54–56] […]
Serum albumin binding study
Bovine Serum Albumin (BSA) and human serum albumin were purchased from Hi Media, The protein binding study was performed by tryptophan fluorescence quenching experiments using bovine serum albumin (BSA, 10 µM) or human serum albumin (HSA, 10 µM) as the substrate in phosphate buffer (pH= 7.2). Quenching of the emission intensity of tryptophan residues of BSA at 346 nm (excitation wavelength at 280 nm)/ HSA at 345 nm (excitation wavelength at 290 nm) was monitored using ligands and complexes as quenchers with increasing concentration (10-100µM). Synchronous fluorescence spectra of BSA or HSA with various concentrations of the complexes were obtained from 300 to 400 nm when ∆λ = 60 nm and from 290 to 500 nm when ∆λ = 15 nm. For synchronous fluorescence spectra, the same concentrations of serum albumins and the compounds were also used and the spectra were measured at two different Δλ values (difference between the excitation and emission wavelengths of BSA), such as 15 and 60 nm. Fluorescence and synchronous measurements were performed using a 1 cm quartz cell on a JASCO FP 6600 spectrofluorimeter.
The quenching data can be analyzed according to the Stern-Volmer equation, […]
Io/Icorr =K SV[Q]+1 Eq (S2) where Iₒ is the emission intensity in the absence of compound, Icorr is the corrected emission intensity in the presence of compound, KSV is the quenching constant and [Q] is the concentration of the compound.
In order to correct the inner filter effect, the following equation used Icorr = Iobs*10 (Aexc+Aem)/2 where Icorr is the corrected fluorescence value, Iobs the measured fluorescence value, Aexc is […]

[2] = test system: Aspergillus fumigatus; assay: In vitro antifungal assay (zone of inhibition, MIC); assay type: cell-based
Method: (§1) The free ligands and their cyclometallated ruthenium(II) carbonyl complexes were screened for their in vitro antimicrobial activity against certain pathogenic bacterial and fungal species at three different concentrations using disc diffusion method.
(§2) Antimicrobial activities of [RuHClCO(PPh3)3], ligands H2L^1–4 and new organometallic Ru(II) complexes (1–4) were evaluated by agar well diffusion method[76] as reported, by taking Staphylococcus aureus, Streptococcus pneumonie, Pseudomonas aeruginosa, Salmonella paratyphi and fungus such as Candida albicans, Trichophyton rubrum, Aspergillus niger, Aspergillus fumigatus and Candida tropicalis. The above said all test organisms were obtained from the MTCC, Chandigarh, India and Microbiological laboratory, Coimbatore, Tamil Nadu, India. The antimicrobial activity of the test compounds was checked with various concentrations (25 μg ml^−1, 50 μg ml^−1 and 100 μg ml^−1) against all the test pathogens. Gentamicin and ketoconazole were used as positive controls to study the antibacterial and antifungal activities respectively. Each experiment was performed in triplicate and the results are represented as average zone of inhibition and minimum inhibitory concentration of all the test pathogens.

[3] = test system: Aspergillus niger; assay: as above; assay type: cell-based
Method: as §1, §2

[4] = test system: Candida tropicalis; assay: as above; assay type: cell-based
Method: as §1, §2

[5] = test system: Trichophyton rubrum; assay: as above; assay type: cell-based
Method: as §1, §2

[6] = test system: C. albicans; assay: as above; assay type: cell-based, Candida albicans; settings: for zone of inhibition at 50 µg/mL / zone of inhibition at 100 µg/mL: Candida albicans
Method: as §1, §2

[7] = test system: human breast cancer cell line MCF-7; assay: MTT cytotoxicity assay; assay type: cell-based; settings: read-out: IC50 values MCF-7
Excerpt: (§3) The DNA/protein binding studies, antioxidant and antimicrobial studies had shown that the ligands and ruthenium(II) complexes studied here have therapeutic potentials and were subjected to study their anticancer activity. A number of coumarin derivatives have shown considerable anticancer activity against a number of cell lines. All the 3-acetyl-7-methoxy-coumarin-4(N)-substituted thiosemicarbazone ligands, metal precursor [RuHClCO(PPh3)3] and their new cyclometallated Ru(II) complexes were assessed for their cytotoxicity with two human derived cell lines namely human lung carcinoma (A549) and human breast cancer cells (MCF-7) by using MTT assay. For comparison purpose, cisplatin was used as a positive control under identical conditions.
(§4) Cytotoxic activity of the compounds was tested with human lung cancer cell lines A549, human breast cancer cell lines MCF-7 and human normal keratinocyte cells (HaCaT) by using MTT assay, which was done according to the earlier literature methods[77] and IC50 values obtained from nonlinear regression using GraphPad Prism 5.[78] The LDH release[79] and NO release[80] assays of the compounds was evaluated by the earlier reported methods.

[8] = test system: human lung carcinoma cancer cell line A549; assay: MTT cytotoxicity assay; assay type: cell-based; settings: read-out: IC50 values A549
Excerpt: as §3, §4

[9] = test system: human normal keratinocyte cells (HaCaT); assay: MTT cytotoxicity assay; assay type: cell-based; settings: 48 h, read-out: IC50 values HaCaT
Method: In order to investigate the selectivity of the compounds for cancer cells rather than normal cell lines, the compounds were also screened for their anticancer activity on the human normal keratinocyte cells (HaCaT).
as §4

T1 sequence (P02768 25-609): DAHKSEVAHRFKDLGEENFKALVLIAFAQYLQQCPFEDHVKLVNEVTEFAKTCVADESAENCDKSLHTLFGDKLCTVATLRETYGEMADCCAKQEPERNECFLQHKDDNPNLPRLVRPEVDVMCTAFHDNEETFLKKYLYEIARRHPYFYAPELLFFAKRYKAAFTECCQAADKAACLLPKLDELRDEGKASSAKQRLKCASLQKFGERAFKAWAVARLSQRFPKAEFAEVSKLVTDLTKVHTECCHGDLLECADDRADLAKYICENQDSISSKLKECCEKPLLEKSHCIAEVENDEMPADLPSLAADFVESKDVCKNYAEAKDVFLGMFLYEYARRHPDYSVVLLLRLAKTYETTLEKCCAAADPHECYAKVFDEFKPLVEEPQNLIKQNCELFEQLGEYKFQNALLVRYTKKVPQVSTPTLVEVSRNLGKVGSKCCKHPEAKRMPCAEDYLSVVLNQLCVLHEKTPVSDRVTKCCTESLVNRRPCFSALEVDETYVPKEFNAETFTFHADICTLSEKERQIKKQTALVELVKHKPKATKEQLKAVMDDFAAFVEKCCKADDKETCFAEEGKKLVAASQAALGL

`CCNC(=S)NN=C(C)c1cc2ccc(OC)cc2oc1=O` [H2L^3, ((1E)-1-(1-(7-methoxy-2-oxo-2H-chromen-3-yl)ethylidene) 4(N)-ethylthiosemicarbazone)] gave a Kd ([1]; HSA, Scatchard equation) of 382 µM, a zone of inhibition at 50 µg/mL [2] of 12.2 ± 0.51 mm and a zone of inhibition at 100 µg/mL [2] of 18.2 ± 0.24 mm. The zone of inhibition at 50 µg/mL [3] was 12.6 ± 0.31 mm, the zone of inhibition at 100 µg/mL [3] was 17.62 ± 0.12 mm and the zone of inhibition at 50 µg/mL [4] was 12.3 ± 0.51 mm. It also gave a zone of inhibition at 100 µg/mL [4] of 17.2 ± 0.51 mm, a zone of inhibition at 50 µg/mL [5] of 13.56 ± 0.05 mm and a zone of inhibition at 100 µg/mL [5] of 19.1 ± 0.21 mm. The zone of inhibition at 50 µg/mL [6] was 11.3 ± 0.12 mm, the zone of inhibition at 100 µg/mL [6] was 18.2 ± 0.22 mm and the IC50 ([7]; Homo sapiens, MCF7, 48 h) was 11.3 ± 0.21 µM. For the same compound, the IC50 ([8]; Homo sapiens, A549, 48 h) was 11.6 ± 0.15 µM and the IC50 ([9]; Homo sapiens, HaCaT) was over 40 µM.
With `CNC(=S)NN=C(C)c1cc2ccc(OC)cc2oc1=O` [H2L^2, ((1E)-1-(1-(7-methoxy-2-oxo-2H-chromen-3-yl)ethylidene) 4(N)-methylthiosemicarbazone)] the Kd ([1]; HSA, Scatchard equation) was 392 µM, the zone of inhibition at 50 µg/mL [2] was 11.8 ± 0.41 mm and the zone of inhibition at 100 µg/mL [2] was 18.3 ± 0.22 mm. The zone of inhibition at 50 µg/mL [3] was 12.4 ± 0.33 mm, the zone of inhibition at 100 µg/mL [3] was 16.6 ± 0.21 mm and the zone of inhibition at 50 µg/mL [4] was 11.5 ± 0.75 mm. For the same compound, the zone of inhibition at 100 µg/mL [4] was 17.1 ± 0.46 mm, the zone of inhibition at 50 µg/mL [5] was 11.3 ± 0.17 mm and the zone of inhibition at 100 µg/mL [5] was 17.4 ± 0.51 mm. The zone of inhibition at 50 µg/mL [6] was 13.38 ± 0.12 mm, the zone of inhibition at 100 µg/mL [6] was 18.17 ± 0.15 mm and the IC50 ([7]; Homo sapiens, MCF7, 48 h) was 12.1 ± 0.32 µM. It also gave an IC50 ([8]; Homo sapiens, A549, 48 h) of 12.1 ± 0.16 µM and an IC50 ([9]; Homo sapiens, HaCaT) of over 40 µM.
With `COc1ccc2[c]3c(c(=O)oc2c1)C(C)=[N+]1N=C(Nc2ccccc2)[S][Ru-4]31([C]#[O+])([P+](c1ccccc1)(c1ccccc1)c1ccccc1)[P+](c1ccccc1)(c1ccccc1)c1ccccc1` [Complex 4, [Ru(7MAC-ptsc)(CO)(PPh3)2]] the Quenching constant kq ([1]; HSA) was 0.675 ± 0.008 × 10^12 M^−1 s^−1, the “Stern–Volmer KSV” value ([1]; HSA) was 0.675 ± 0.008 × 10^4 M^−1 and the “number of binding sites n” value ([1]; HSA) was 0.9118 ± 0.025. The “Binding constant Kbin” value ([1]; HSA, Scatchard equation) was 0.297 ± 0.024 × 10^4 M^−1, the “decrease of HSA fluorescence intensity” value ([1]; compounds 10–100 μM, HSA 10 μM) was 39.80% and the “Minimum inhibitory concentration (MIC); head: IC50 VALUES” (from here on “Minimum inhibitory concentration (MIC)”) [2] was 14.45 ± 0.13 µM. The Zone of inhibition ([2]; 50 µg/ml) was 12.36±0.52 mm, the Zone of inhibition ([2]; 100 µg/ml) was 18.15±0.45 mm and the “Minimum inhibitory concentration (MIC)” value [3] was 14.80 ± 0.25 µM. The Zone of inhibition ([3]; 50 µg/ml) was 11.55±0.26 mm, the Zone of inhibition ([3]; 100 µg/ml) was 17.66±0.13 mm and the “Minimum inhibitory concentration (MIC)” value [4] was 13.54 ± 0.21 µM. The Zone of inhibition ([4]; 50 µg/ml) was 12.43±0.12 mm, the Zone of inhibition ([4]; 100 µg/ml) was 17.13±0.57 mm and the “Minimum inhibitory concentration (MIC)” value [5] was 15.52 ± 0.27 µM. The Zone of inhibition ([5]; 50 µg/ml) was 12.41±0.56 mm, the Zone of inhibition ([5]; 100 µg/ml) was 18.42±0.18 mm and the “Minimum inhibitory concentration (MIC)” value ([6]; C. albicans) was 14.65 ± 0.13 µM. For the same compound, the Zone of inhibition ([6]; C. albicans, 50 µg/ml) was 12.49±0.14 mm, the Zone of inhibition ([6]; C. albicans, 100 µg/ml) was 17.19±0.66 mm and the IC50 ([7]; MTT, 48 h) was 3.02 ± 0.05 µM. It also gave an IC50 ([8]; MTT, 48 h) of 3.05 ± 0.12 µM and an IC50 ([9]; MTT, normal cells) of over 40 µM.
